Measured values published in ChEMBL document CHEMBL1124125, “6-(Alkylamino)-3-aryl-1,2,4-triazolo[3,4-a]phthalazines. A new class of benzodiazepine receptor ligands” (J Med Chem, 1988).

Assays:
Mus musculus [1] = organism: Mus musculus; assay: Anticonvulsant activity of the compound when maximal electroshock is induced in mouse; format: functional
Mus musculus [2] = assay: Activity was measured by rotarod test by intraperitoneal administration in mouse.; format: functional; details: ip
Mus musculus [3] = assay: (§1) Anticonvulsant activity of the compound when lethal dose of strychnine given subcutaneously in mouse; format: ADME, organism-based; details: in vivo, sc
Mus musculus [4] = organism: Mus musculus; assay: Anticonvulsant activity when maximal electroshock is induced in mouse; format: functional
Rattus norvegicus [5] = assay: Activity was measured by rotarod test by peroral administration in rat; format: functional; details: po
Mus musculus [6] = assay: (§2) Anticonvulsant activity when lethal dose of strychnine given subcutaneously in mouse; format: ADME, organism-based; details: in vivo, sc
Mus musculus [7] = assay: Anticonvulsant activity when bicuculline given subcutaneously in mouse; format: functional; details: sc
[8] = molecular target: GABA-A receptor; anion channel (Rattus norvegicus) (UniProt O09028+P15431+P18506+P18508+P19969+P20236+P23574+P23576+P28471+P28473+P30191+P62813+P63079+P63138+Q91ZM7+Q9ES14); assay: GABA ratio (IC50/IC50 in the presence of 10e-4 GABA).; format: protein-complex assay
[9] = molecular target: GABA-A receptor; anion channel; assay: Inhibition of [3H]diazepam binding to GABA-A central benzodiazepine receptor of rat brain homogenate
[10] = Lethal dose when given intraperitoneally in mice; format: toxicity, organism-based; details: mouse, in vivo, ip
Mus musculus [11] = assay: Antagonism of Diazepam muscle relaxant effect by compound (60 mg/kg, ip) was measured as the ratio of fallen/treated mice.; format: functional
Mus musculus [12] = assay: Dose that prevented tonic extensor seizures and death in 50% of the mice.(ip); format: functional
Rattus norvegicus [13] = assay: Minimal effective dose on rat for mortality after intraperitoneal administration. (1/3 animals died); format: functional; details: ip, read-out: MED
Rattus norvegicus [14] = assay: Minimal effective dose on rat for motility after intraperitoneal administration.; format: functional; details: ip, read-out: MED
Mus musculus [15] = assay: as §1; format: functional; details: sc
Mus musculus [16] = assay: Minimal effective dose on mouse for body tone after intraperitoneal administration.; format: functional; details: ip, read-out: MED
Mus musculus [17] = assay: Minimal effective dose on mouse for mortality after intraperitoneal administration.(1/3 animals died); format: functional; details: ip, read-out: MED
Rattus norvegicus [18] = assay: Effective dose on rat for motor coordination after intraperitoneal administration.; format: functional
Mus musculus [19] = assay: Effective dose on mouse for body tone after intraperitoneal administration.; format: functional
Mus musculus [20] = assay: Minimal effective dose on mouse for motor coordination after intraperitoneal administration.; format: functional; details: ip, read-out: MED
Rattus norvegicus [21] = assay: Effective dose on rat for motility after intraperitoneal administration.; format: functional
Mus musculus [22] = assay: Anticonvulsant activity of the compound when bicuculline given subcutaneously in mouse; format: functional; details: sc
Rattus norvegicus [23] = assay: Minimal effective dose on rat for motor coordination after intraperitoneal administration.; format: functional; details: ip, read-out: MED
Rattus norvegicus [24] = assay: Minimal effective dose (MED, ip) that significantly increased the number of shocks (anticonflict); format: functional; details: read-out: MED
Mus musculus [25] = assay: Minimal effective dose on mouse for motility after intraperitoneal administration.; format: functional; details: ip, read-out: MED
Rattus norvegicus [26] = assay: Conditioned Avoidance response activity (CR2) at 10 mg/kg (i.p.) (No. of rats with blocked response/No. of treated rats); format: functional; details: route intraperitoneal
Mus musculus [27] = assay: Effective dose on mouse for motor coordination after intraperitoneal administration.; format: functional
Rattus norvegicus [28] = assay: Conditioned Avoidance response activity (CR2) at 20 mg/kg (i.p.) (No. of rats with blocked response/No. of treated rats); format: functional; details: route intraperitoneal
Mus musculus [29] = assay: Effective dose on mouse for motility after intraperitoneal administration.; format: functional
Rattus norvegicus [30] = assay: Effective dose on rat for body tone after intraperitoneal administration.; format: functional
Rattus norvegicus [31] = assay: Minimal effective dose on rat for body tone after intraperitoneal administration.; format: functional; details: ip, read-out: MED
Mus musculus [32] = assay: as §2; details: sc
Rattus norvegicus [33] = assay: Minimal effective dose (MED) that significantly increased the number of shocks.(ip); details: read-out: MED
Mus musculus [34] = assay: Antagonism of Diazepam muscle relaxant effect by compound (3 mg/kg, ip) was measured by the fallen/treated mice.; format: functional

| Compound | ED50 (Mus musculus [1]) | ED50 (Mus musculus [2]) | ED50 (Mus musculus [4]) | ED50 (Rattus norvegicus [5]) | ED50 (Mus musculus [7]) | Ratio [8] | Ki [9] | LD50 [10] | ED50 (Mus musculus [12]) | minimal effective dose (Rattus norvegicus [24]) | CR2 (Rattus norvegicus [26]) | other results |
| --- | --- | --- | --- | --- | --- | --- | --- | --- | --- | --- | --- | --- |
| Cc1nnc2ccc(-c3cccc(C(F)(F)F)c3)nn12 [CI-218872] | 30 mg/kg | 10 mg/kg | – | – | – | – | – | – | – | – | – | ED50 (Mus musculus [3]): 30 mg/kg |
| CNC1=Nc2ccc(Cl)cc2C(c2ccccc2)=[N+]([O-])C1 [CHLORDIAZEPOXIDE] | – | 11 mg/kg | 23 mg/kg | 68.4 mg/kg | 4.7 mg/kg | – | – | – | – | – | – | ED50 (Mus musculus [6]): 7.5 mg/kg |
| COc1ccc(-c2nnc3c4ccccc4c(N4CCCC4)nn23)cc1 | – | – | – | – | – | 1.1 | 3.9 nM | 600 mg/kg | > 100 mg/kg | – | – | Fallen/treated (Mus musculus [11]): 5 |
| COCCN(CCOC)c1nn2c(-c3ccc(OC)cc3)nnc2c2ccccc12 | 50 mg/kg | 60 mg/kg | – | 300 mg/kg | – | 1.83 | 2.6 nM | 300 mg/kg | 6.2 mg/kg | 3.5 mg/kg | 4 block/treat | minimal effective dose (Rattus norvegicus [13]): 1000 mg/kg; minimal effective dose (Rattus norvegicus [14]): 300 mg/kg; ED50 (Mus musculus [15]): 50 mg/kg; minimal effective dose (Mus musculus [16]): 6 mg/kg; minimal effective dose (Mus musculus [17]): 300 mg/kg; ED (Rattus norvegicus [18]): 600 mg/kg; ED (Mus musculus [19]): 100 mg/kg; minimal effective dose (Mus musculus [20]): 6 mg/kg; ED (Rattus norvegicus [21]): 1000 mg/kg; ED50 (Mus musculus [22]): 4 mg/kg; minimal effective dose (Rattus norvegicus [23]): 100 mg/kg; minimal effective dose (Mus musculus [25]): 10 mg/kg; ED (Mus musculus [27]): 60 mg/kg; CR2 (Rattus norvegicus [28]): 10 block/treat; ED (Mus musculus [29]): 60 mg/kg; ED (Rattus norvegicus [30]): 600 mg/kg; minimal effective dose (Rattus norvegicus [31]): 300 mg/kg |
| CN1C(=O)CN=C(c2ccccc2)c2cc(Cl)ccc21 [DIAZEPAM] | – | 1 mg/kg | 14.2 mg/kg | 15 mg/kg | 1.4 mg/kg | – | – | – | – | 0.25 mg/kg | 5 block/treat | ED50 (Mus musculus [32]): 3 mg/kg; minimal effective dose (Rattus norvegicus [33]): 3 mg/kg; Fallen/treated (Mus musculus [34]): 8 |
